Assay results as given in patent publication US10927104B2, “Ether compounds and uses thereof” (BioTheryX, Inc., priority 2017, dated 2021).

What was measured:
Assay type in all cases: cell-based
[1] = tested on: IL-6; assay: PBMC assay, LPS-induced IL-6 (Meso Scale); details: Homo sapiens, PBMCs, 100 ng/mL LPS 18-24 hrs; for inhibition at 0.1 µM: compound at 0.1 μM; for inhibition at 1 µM: compound at 1 μM; for inhibition at 10 µM: compound at 10 μM
Procedure: (§1) FIG. 2 represents the activity against IL-6 in peripheral blood mononuclear cells (PBMCs), plated in 96 well plates and pretreated with compound for 1 hour and then induced with 100 ng/mL LPS for 18-24 hrs. Cytokines were measured according to MesoScale protocol. Negative control wells were treated with DMSO. Compound activity was measured as a percentage of LPS-induced activity.
(§2) Frozen primary blood mononuclear cells (PBMCs) were purchased from AllCells. Cells were quick thawed, washed once with RPMI-1640/10% FBS.
(§3) 1% Penicillin/1% Streptomycin and plated in 96 well plates at 200,000 cells per well. Cells were pretreated with DMSO only, or Compound 1 for 1 hour and then induced with 100 ng/mL lipopolysaccharide (LPS) for 18-24 hrs. The supernatant was analyzed for IL-1 beta, IL-6, and TNFα, using Meso Scale assay according to manufacturer's protocol. The negative control wells were treated with DMSO.
(§4) Compound activity was measured as fold difference from the DMSO control. IL-1β activity is shown in FIG. 1; IL-6 activity is shown in FIG. 2; TNFα activity is shown in FIG. 3; and IL-2 activity is shown in FIG. 4. Additional data for compounds (shown as percent inhibition) at 10 μM is shown in Table 1; at 1 μM in Table 2; and at 0.1 μM in Table 3.

[2] = tested on: Molm-13 cells; assay: Cell viability assay (CellTiter-Glo), Molm-13 proliferation; details: Homo sapiens, MOLM-13, 72 h, 3 days; for inhibition at 1 µM: compound at 1 μM; for inhibition at 0.1 µM: compound at 0.1 μM; for inhibition at 10 µM: compound at 10 μM
Procedure: (§5) Molm-13 and MV-4-11 cells were cultivated in RPMI-1640 (10% FBS/1% pen-strep) and were plated in white walled 96-well plates at 20,000 cells/well.
(§6) Cells were treated with compound at the indicated concentration or DMSO (control) and the cultures were incubated for 3 days at 37° C. and 5% CO2. Following the incubation period, 100 μL of CellTiterGlow (CTG) reagent (CellTiter-Glo® Luminescent Cell Viability Assay, Promega (Madison, Wis.)) was added to each well. Following a 10 min incubation with shaking, luminescence was measured using a Victor Wallac Luminometer.

[3] = tested on: TNFα; assay: PBMC assay, LPS-induced TNFα (Meso Scale); details: Homo sapiens, PBMCs, 100 ng/mL LPS 18-24 hrs; for inhibition at 0.1 µM: compound at 0.1 μM; for inhibition at 1 µM: compound at 1 μM; for inhibition at 10 µM: compound at 10 μM
Procedure: as §1, with “FIG. 3” for “FIG. 2”, “against TNFα” for “against IL-6”, “Cytokines in the media” for “Cytokines”, “protocol. The negative” for “protocol. Negative”, “activity is” for “activity was”
as §2, §3, §4

[4] = tested on: IL-2; assay: Anti-CD3-induced IL-2 secretion in PBMCs (Mesoscale); details: Homo sapiens, PBMC, anti-CD3 stimulated PBMCs, 24 hr, vs DMSO control, read-out: IL-2 Fold Change; for fold induction at 0.1 µM: compound at 0.1 μM; for fold induction at 1 µM: compound at 1 μM; for fold induction at 10 µM: compound 10 μM
Procedure: FIG. 4 represents Anti-CD3-induced IL-2 secretion in PBMCs. 1 μg/mL anti-CD3 (OKT-3) antibody in PBS coated onto 96-well plates overnight at 4° C. Approximately, 550,000 PBMCs were added to each well, followed by addition of DMSO only (control) or Compound 1. Induction was measured after 24 hrs as fold difference from the DMSO stimulated control.
as §2
For the IL-2 analysis, 96 well plates were precoated with 1 μg/mL anti-human CD3 antibody (OKT3, eBioscience Inc.). After washing with PBS, Compound 1 was added (50 μL/well) followed by PBMCs diluted at 3-4 million cells/mL (150 μL/well). Plates were incubated for 24 hr and the supernatants collected for Mesoscale IL-2 analysis.
as §4

[5] = tested on: MV-4-11 cells; assay: Cell viability assay (CellTiter-Glo), MV-4-11 proliferation; details: Homo sapiens, MV4-11, 72 h, 3 days; for inhibition at 1 µM: compound at 1 μM; for inhibition at 10 µM: compound at 10 μM
Procedure: as §5, §6

[6] = tested on: IL-1β; assay: PBMC assay, LPS-induced IL-1β (Meso Scale); details: Homo sapiens, PBMCs, 100 ng/mL LPS 18-24 hrs; for inhibition at 0.1 µM: compound at 0.1 μM; for inhibition at 1 µM: compound at 1 μM; for inhibition at 10 µM: compound at 10 μM
Procedure: as §1, with “FIG. 1” for “FIG. 2”, “against IL-1-beta” for “against IL-6”, “Cytokines in the media” for “Cytokines”, “activity is” for “activity was”
as §2, §3, §4

| SMILES | inhibition at 0.1 µM [1] [%] | inhibition at 1 µM [1] [%] | inhibition at 1 µM [2] [%] | inhibition at 0.1 µM [3] [%] | inhibition at 1 µM [3] [%] | fold induction at 0.1 µM [4] | fold induction at 1 µM [4] | inhibition at 1 µM [5] [%] | inhibition at 10 µM [5] [%] | inhibition at 0.1 µM [6] [%] | inhibition at 1 µM [6] [%] | inhibition at 0.1 µM [2] [%] | inhibition at 10 µM [2] [%] | inhibition at 10 µM [1] [%] | inhibition at 10 µM [3] [%] | inhibition at 10 µM [6] [%] | fold induction at 10 µM [4] |
| --- | --- | --- | --- | --- | --- | --- | --- | --- | --- | --- | --- | --- | --- | --- | --- | --- | --- |
| Cc1cnc(Nc2ccc(OCCCNC(=O)NCc3ccc4c(c3OCc3ccc(CN5CCOCC5)cc3)CN([C@H]3CCC(=O)NC3=O)C4=O)cc2)nc1Nc1cccc(S(=O)(=O)NC(C)(C)C)c1 [Compound 23] | 23 | 32 | 30 | 48 | 88 | 0.9 | 1.3 | 8 | 79 | 35 | 79 | – | – | – | – | – | – |
| O=C1CCC[C@H](N2Cc3c(OCCc4ccc(CN5CCOCC5)cc4)cccc3C2=O)C(=O)N1 [Compound 26, (S)-3-(4-{2-[p-(Morpholinomethyl)phenyl]ethoxy}-2-isoindolinoyl)-2,7-azepanedione] | 5 | 8 | 66 | 82 | 87 | 2.6 | 2.7 | 2 | 23 | 78 | 81 | 21 | – | – | – | – | – |
| O=C1CCC[C@H](N2Cc3c(OCc4ccc(CN5CCOc6ccccc65)cc4)cccc3C2=O)C(=O)N1 [Compound 2, (S)-3-(4-((4-((2,3-dihydro-4H-benzo[b][1,4]oxazin-4-yl)methyl)benzyl)oxy)-1-oxoisoindolin-2-yl)azepane-2,7-dione] | 43 | 67 | 5 | 81 | 90 | 1.3 | 2.3 | 6 | 16 | 72 | 86 | – | 30 | – | – | – | – |
| O=C1CCC[C@H](N2Cc3c(OCc4ccc(CN5CCOCC5)c(Cl)c4)cccc3C2=O)C(=O)N1 [Compound 3] | 72 | 79 | 1 | 91 | 93 | 2 | 0.7 | 0 | 20 | 91 | 93 | – | 29 | 77 | 94 | 93 | – |
| Cc1cnc(Nc2ccc(OCCCNC(=O)NCc3ccc(COc4cc(F)cc5c4CN([C@H]4CCC(=O)NC4=O)C5=O)cc3)cc2)nc1Nc1cccc(S(=O)(=O)NC(C)(C)C)c1 [Compound 18] | – | 49 | – | – | 83 | – | 3.2 | 99 | 99 | – | 80 | – | 99 | 45 | 89 | 83 | 3.3 |
| Cc1cnc(Nc2ccc(OCCCNC(=O)NCc3ccc(COc4cccc5c4CN([C@H]4CCC(=O)NC4=O)C5=O)cc3)cc2)nc1Nc1cccc(S(=O)(=O)NC(C)(C)C)c1 [Compound 20] | 1 | 5 | 99 | 43 | 57 | 0.9 | 1.4 | 77 | 88 | 30 | 43 | 93 | – | – | – | – | – |
| O=C1CCC[C@H](N2Cc3c(OCc4cccc(CN5CCOCC5)c4)cccc3C2=O)C(=O)N1 [Compound 10] | 27 | – | – | 48 | – | 1.9 | 2.1 | 1 | 35 | 52 | – | – | 38 | – | – | – | – |
| Cc1cnc(Nc2ccc(OCCCNC(=O)NCc3ccc4c(c3OCc3ccc(CN5CCOCC5)cc3)CN([C@H]3CCCC(=O)NC3=O)C4=O)cc2)nc1Nc1cccc(S(=O)(=O)NC(C)(C)C)c1 [Compound 27] | 5 | 4 | 37 | 60 | 72 | 1.3 | 1.5 | 10 | 36 | 50 | 62 | – | – | – | – | – | – |
| O=C1CCC[C@H](N2Cc3c(OCc4ccc(C(=O)N5CCOCC5)cc4)cccc3C2=O)C(=O)N1 [Compound 8, (S)-3-{4-[(p-Morpholinocarbonlphenyl)methoxy]-2-isoindolinoyl}-2,7-azepanedione] | 56 | – | – | 63 | – | 1.8 | 2.3 | 0 | 0 | 73 | – | – | 16 | – | – | – | – |
| Cc1cnc(Nc2ccc(OCCCNC(=O)NCc3ccc(COc4cccc5c4CN([C@H]4CCCC(=O)NC4=O)C5=O)cc3)cc2)nc1Nc1cccc(S(=O)(=O)NC(C)(C)C)c1 [Compound 13] | – | 59 | 29 | – | 84 | – | 0.3 | 0 | 50 | – | 51 | – | – | – | – | – | 0.1 |
